Here are results for three compounds from patent US8569524B2, “Bis(tetrahydrofuran) compound, method for production of the compund, and use of the compound” (Glytech Inc., priority 2007, dated 2013).

The subject of this assay is Pheochromocytoma (PC12) cells. The assay is described as follows: Neurite outgrowth activity test in PC12 cells in the presence of NGF. The following applies: in the presence of DMSO and NGF (20 ng/ml), compared with the sample without compound, micrographs. Format: cell-based. As for the experimental part:
When the solvent was ethanol, the concentrations were targeted at 1 mM, 0.1 mM, and […]. A sample at 1 mM concentration was prepared first. When the amount of sample was 1 mg, the sample was dissolved in 100% ethanol (1/molecular weight×1,000)/2 ml, and an equal amount of Milli-Q (1/molecular weight×1,000)/2 ml was added thereto, after which the sample was filtered through a […] into a sample tube.
A sample at 0.1 mM concentration was prepared by diluting 1 mM solution 10-fold with 50% ethanol. Likewise, a sample at […] concentration was prepared from 0.1 mM solution.
When the solvent was DMSO, the concentrations were targeted at 10 mM, 1 mM, and 0.1 mM.
When the sample is prepared in ethanol, the sample is diluted 100-fold with the medium; and when the sample is prepared in DMSO, the sample is diluted 1,000-fold in the medium. The actual concentrations of the sample were thus […] both when the sample was prepared in ethanol and when the sample was prepared in DMSO.
Measurement was carried out using the following equipment and software.
Statistical processing of obtained data was carried out using “Origin ver. 7.0” (OriginLab, USA) and Mac Statistical Analysis. The significant difference was determined using Student's T-test and Dunnett's T-test.
Pheochromocytoma (PC12) cells were purchased from the Health Science Research Resources Bank of the Japan Health Sciences Foundation. Cell number: JCRB0733, product name: PC-12.
PC12 cells were cultivated in a medium having a composition including DMEM/10% HS, 5% FBS, 50 IU/ml penicillin, and […], in a culture flask coated with rat tail-derived collagen, in an incubator (95% humidity, 5% carbon dioxide). When the cell density becomes obviously too low, or when the cells overproliferate, the cells would be under load, requiring a longer time for proliferation and/or causing the cells to dye out. Thus, the cells were subcultured such that the cells would be present at a density of about 80% in the flask. When cells were subcultured or when activity evaluation tests were carried out, the cells were treated with trypsin (0.25%, 5 min.) to obtain a cell suspension, which was then seeded into a collagen-coated culture flask or plate.
The condition of the PC12 cells was observed; it was confirmed that at least 50% of the PC12 cells were fused. The plate was coated with rat tail-derived collagen; on the following day, the plate was washed twice with Milli-Q water. Then, a medium having a composition including DMEM/10% HS, 5% FBS, 50 IU/ml penicillin, and […] was prepared.
The medium in the culture flask was removed by suction. The PC12 cells were washed twice with PBS (5 mL), and trypsin (3 mL) was added thereto, which was then left to stand for about 5 minutes. A cell suspension was obtained by pipetting. In order to inhibit the activity of the trypsin, the cell suspension was transferred to a 50 mL centrifuge tube containing a serum-containing medium (2 mL). The total amount was adjusted to 10 mL with PBS, and the cell suspension was centrifuged (1,000 rpm×5 min). After centrifuging, the supernatant liquid was removed by suction using a pump, PBS (10 mL) was added thereto, and pipetting was carried out several times using a bent-tip Komagome pipette. After pipetting, the cell suspension was centrifuged again, and a similar operation was repeated twice. […]

On to `CO[C@@]1(C)C[C@@H]2OCC3=CCCCC32O1` (some centres unmarked) [Compound 1C-2-1], for which the neurite outgrowth activity entry is listed as “further enhanced neurite outgrowth activity” (1 μM compound) and “further enhanced neurite outgrowth activity” (10 μM compound).
`CO[C@]1(C)C[C@@H]2OCC3=CCCCC32O1` (some centres unmarked) [Compound 1D-2-1]: the neurite outgrowth activity result was “further enhanced neurite outgrowth activity” (1 μM compound) and “further enhanced neurite outgrowth activity” (10 μM compound).
Consider `CCO[C@]1(C)C[C@@H]2OCC3=CCCC[C@]32O1` [Compound 1D-2-3], for which, under “10 μM compound”, the neurite outgrowth activity result is reported as “further enhanced neurite outgrowth activity”.
